From patent US9611269B2, “Azetidinyl phenyl, pyridyl or pyrazinyl carboxamide derivatives as JAK inhibitors” (Incyte Corporation, priority 2011, dated 2017)

Assays:
Format in all cases: biochemical
[1] = molecular target: human JAK1 (a.a. 837-1142) catalytic domain (Homo sapiens, UniProt P23458); experiment: In vitro JAK kinase assay (HTRF, 1 mM ATP), JAK1; details: at 1 mM ATP;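 note: kinase activity followed as phosphorylation of a biotin-tagged peptide, detected by HTRF with Eu-labelled anti-phosphotyrosine antibody and SA-APC, after 1 h reaction at room temperature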
Sequence of human JAK1 (a.a. 837-1142) catalytic domain (Homo sapiens, UniProt P23458) (P23458 whole entry, looked up, the tested form may be a part): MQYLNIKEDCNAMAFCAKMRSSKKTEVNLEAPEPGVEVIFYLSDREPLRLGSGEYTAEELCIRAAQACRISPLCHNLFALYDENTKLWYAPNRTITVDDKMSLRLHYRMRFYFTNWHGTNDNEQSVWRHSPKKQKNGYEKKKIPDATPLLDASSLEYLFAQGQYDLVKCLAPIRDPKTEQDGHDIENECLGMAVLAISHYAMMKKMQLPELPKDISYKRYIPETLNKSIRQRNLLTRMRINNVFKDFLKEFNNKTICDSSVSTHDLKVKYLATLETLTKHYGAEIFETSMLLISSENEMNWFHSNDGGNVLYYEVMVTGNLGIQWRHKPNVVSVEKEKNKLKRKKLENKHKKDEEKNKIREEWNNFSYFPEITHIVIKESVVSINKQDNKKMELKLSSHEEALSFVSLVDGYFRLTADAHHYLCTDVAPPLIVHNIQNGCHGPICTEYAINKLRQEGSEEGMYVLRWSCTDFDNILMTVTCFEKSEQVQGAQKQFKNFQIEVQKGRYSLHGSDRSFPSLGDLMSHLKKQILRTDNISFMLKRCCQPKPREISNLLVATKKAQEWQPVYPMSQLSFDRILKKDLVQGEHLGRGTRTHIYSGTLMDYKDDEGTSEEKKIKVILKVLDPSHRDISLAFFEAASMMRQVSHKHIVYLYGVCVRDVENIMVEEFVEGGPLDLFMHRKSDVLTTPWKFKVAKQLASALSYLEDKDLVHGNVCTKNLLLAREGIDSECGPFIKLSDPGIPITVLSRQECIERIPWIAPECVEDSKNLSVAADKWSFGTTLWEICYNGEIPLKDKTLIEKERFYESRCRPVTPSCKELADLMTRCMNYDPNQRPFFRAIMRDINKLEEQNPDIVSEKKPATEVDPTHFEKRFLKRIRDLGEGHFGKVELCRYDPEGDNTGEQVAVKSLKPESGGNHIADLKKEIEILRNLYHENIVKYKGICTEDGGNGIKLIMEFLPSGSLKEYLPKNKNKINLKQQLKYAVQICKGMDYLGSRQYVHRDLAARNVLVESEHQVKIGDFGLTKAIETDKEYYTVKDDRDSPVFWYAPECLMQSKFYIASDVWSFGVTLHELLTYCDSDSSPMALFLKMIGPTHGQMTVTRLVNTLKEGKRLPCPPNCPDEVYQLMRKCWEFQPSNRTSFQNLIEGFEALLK
Procedure: (§1) The catalytic activity of JAK1, JAK2 or JAK3 was assayed by measuring the phosphorylation of a biotinylated peptide. The phosphorylated peptide was detected by homogenous time resolved fluorescence (HTRF). […] Reactions were carried out at room temperature for 1 hour and then stopped with 20 μL 45 mM EDTA, 300 nM SA-APC, 6 nM Eu-Py20 in assay buffer (Perkin Elmer, Boston, Mass.). Binding to the Europium labeled antibody took place for 40 minutes and HTRF signal was measured on a Fusion plate reader (Perkin Elmer, Boston, Mass.).

[2] = test system: human JAK1 (a.a. 837-1142) catalytic domain; experiment: In vitro JAK kinase assay (HTRF, 1 mM ATP), JAK1; details: ratio of JAK2 IC50 to JAK1 IC50 at 1 mM ATP;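 note: kinase activity followed as phosphorylation of a biotin-tagged peptide, detected by HTRF with Eu-labelled anti-phosphotyrosine antibody and SA-APC, after 1 h reaction at room temperature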
Procedure: as §1

[3] = molecular target: human JAK2 (a.a. 828-1132) catalytic domain (Homo sapiens (Human), UniProt O60674); experiment: In vitro JAK kinase assay (HTRF, 1 mM ATP), JAK2; details: at 1 mM ATP
Sequence of human JAK2 (a.a. 828-1132) catalytic domain (O60674 828-1132): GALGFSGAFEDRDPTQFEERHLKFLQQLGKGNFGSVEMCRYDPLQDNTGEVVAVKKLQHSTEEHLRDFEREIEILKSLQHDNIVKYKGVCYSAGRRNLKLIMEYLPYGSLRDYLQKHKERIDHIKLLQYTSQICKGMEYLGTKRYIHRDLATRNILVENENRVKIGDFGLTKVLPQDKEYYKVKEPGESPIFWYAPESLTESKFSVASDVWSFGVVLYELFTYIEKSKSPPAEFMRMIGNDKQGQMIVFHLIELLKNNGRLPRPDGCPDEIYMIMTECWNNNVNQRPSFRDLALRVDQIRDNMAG
Procedure: as §1

| SMILES | IC50 [1] | JAK2/JAK1 [2] | IC50 [3] |
| --- | --- | --- | --- |
| CC(C)NC(=O)c1ccc(N2CC(CC#N)(n3cc(-c4ccnc5[nH]ccc45)cn3)C2)cc1 [Example 1, 4-{3-(Cyanomethyl)-3-[4-(1H-pyrrolo[2,3-b]pyridin-4-yl)-1H-pyrazol-1-yl]azetidin-1-yl}-N-isopropylbenzamide] | < 10 nM | A (A means greater than or equal to 10) | 10 to 40 nM |
| C[C@H](NC(=O)c1ccc(N2CC(CC#N)(n3cc(-c4ccnc5[nH]ccc45)cn3)C2)cn1)C1CC1 [Example 2, 5-{3-(Cyanomethyl)-3-[4-(1H-pyrrolo[2,3-b]pyridin-4-yl)-1H-pyrazol-1-yl]azetidin-1-yl}-N-[(1S)-1-cyclopropylethyl]pyridine-2-carboxamide] | < 10 nM | A (A means greater than or equal to 10) | ≤ 10 nM |
| CC(C)NC(=O)c1ccc(N2CC(CC#N)(n3cc(-c4ncnc5[nH]ccc45)cn3)C2)c(F)c1 [Example 3, 4-{3-(Cyanomethyl)-3-[4-(7H-pyrrolo[2,3-d]pyrimidin-4-yl)-1H-pyrazol-1-yl]azetidin-1-yl}-3-fluoro-N-isopropylbenzamide] | < 10 nM | A (A means greater than or equal to 10) | ≤ 10 nM |
| C[C@@H](NC(=O)c1ccc(N2CC(CC#N)(n3cc(-c4ncnc5[nH]ccc45)cn3)C2)c(F)c1)C1CC1 [Example 4, 4-{3-(Cyanomethyl)-3-[4-(7H-pyrrolo[2,3-d]pyrimidin-4-yl)-1H-pyrazol-1-yl]azetidin-1-yl}-N-[(1R)-1-cyclopropylethyl]-3-fluorobenzamide] | < 10 nM | A (A means greater than or equal to 10) | ≤ 10 nM |
| C[C@H](NC(=O)c1ccc(N2CC(CC#N)(n3cc(-c4ncnc5[nH]ccc45)cn3)C2)c(F)c1)C1CC1 [Example 5, 4-{3-(Cyanomethyl)-3-[4-(7H-pyrrolo[2,3-d]pyrimidin-4-yl)-1H-pyrazol-1-yl]azetidin-1-yl}-N-[(1S)-1-cyclopropylethyl]-3-fluorobenzamide] | < 10 nM | A (A means greater than or equal to 10) | ≤ 10 nM |
| CC(C)NC(=O)c1cc(F)c(N2CC(CC#N)(n3cc(-c4ncnc5[nH]ccc45)cn3)C2)cc1F [Example 6, 4-{3-(Cyanomethyl)-3-[4-(7H-pyrrolo[2,3-d]pyrimidin-4-yl)-1H-pyrazol-1-yl]azetidin-1-yl}-2,5-difluoro-N-isopropylbenzamide] | < 10 nM | A (A means greater than or equal to 10) | ≤ 10 nM |
| CN(C(=O)c1ccc(N2CC(CC#N)(n3cc(-c4ncnc5[nH]ccc45)cn3)C2)c(F)c1)C1CC1 [Example 7, 4-{3-(Cyanomethyl)-3-[4-(7H-pyrrolo[2,3-d]pyrimidin-4-yl)-1H-pyrazol-1-yl]azetidin-1-yl}-N-cyclopropyl-3-fluoro-N-methylbenzamide] | < 10 nM | A (A means greater than or equal to 10) | ≤ 10 nM |
| CC(C)NC(=O)c1cc(Cl)c(N2CC(CC#N)(n3cc(-c4ncnc5[nH]ccc45)cn3)C2)cc1F [Example 8, 5-Chloro-4-{3-(cyanomethyl)-3-[4-(7H-pyrrolo[2,3-d]pyrimidin-4-yl)-1H-pyrazol-1-yl]azetidin-1-yl}-2-fluoro-N-isopropylbenzamide] | < 10 nM | A (A means greater than or equal to 10) | ≤ 10 nM |
| C[C@H](NC(=O)c1ccc(N2CC(CC#N)(n3cc(-c4ncnc5[nH]ccc45)cn3)C2)cc1)C(F)(F)F [Example 19, 4-{3-(Cyanomethyl)-3-[4-(7H-pyrrolo[2,3-d]pyrimidin-4-yl)-1H-pyrazol-1-yl]azetidin-1-yl}-N-[(1S)-2,2,2-trifluoro-1-methylethyl]benzamide bis(trifluoroacetate)] | < 10 nM | – | – |
| C[C@@H](NC(=O)c1ccc(N2CC(CC#N)(n3cc(-c4ncnc5[nH]ccc45)cn3)C2)cc1)C(F)(F)F [Example 23, 4-{3-(Cyanomethyl)-3-[4-(7H-pyrrolo[2,3-d]pyrimidin-4-yl)-1H-pyrazol-1-yl]azetidin-1-yl}-N-[(1R)-2,2,2-trifluoro-1-methylethyl]benzamide bis(trifluoroacetate)] | < 10 nM | – | – |
| CC(NC(=O)c1ccc(N2CC(CC#N)(n3cc(-c4ncnc5[nH]ccc45)cn3)C2)cc1)C(F)(F)F (stereo not drawn) [Example 26, 4-{3-(Cyanomethyl)-3-[4-(7H-pyrrolo[2,3-d]pyrimidin-4-yl)-1H-pyrazol-1-yl]azetidin-1-yl}-N-(2,2,2-trifluoro-1-methylethyl)benzamide] | < 10 nM | – | – |

Results, then the compound that gave them:

| IC50 [1] | JAK2/JAK1 [2] | IC50 [3] | SMILES |
| --- | --- | --- | --- |
| < 10 nM | A (A means greater than or equal to 10) | ≤ 10 nM | CC(C)NC(=O)c1ccc(N2CC(CC#N)(n3cc(-c4ncnc5[nH]ccc45)cn3)C2)cn1 [Example 9, 5-{3-(Cyanomethyl)-3-[4-(7H-pyrrolo[2,3-d]pyrimidin-4-yl)-1H-pyrazol-1-yl]azetidin-1-yl}-N-isopropylpyridine-2-carboxamide] |
| < 10 nM | A (A means greater than or equal to 10) | ≤ 10 nM | C[C@H](NC(=O)c1ccc(N2CC(CC#N)(n3cc(-c4ncnc5[nH]ccc45)cn3)C2)c(F)c1)C(F)(F)F [Example 10, 4-{3-(Cyanomethyl)-3-[4-(7H-pyrrolo[2,3-d]pyrimidin-4-yl)-1H-pyrazol-1-yl]azetidin-1-yl}-3-fluoro-N-[(1S)-2,2,2-trifluoro-1-methylethyl]benzamide] |
| < 10 nM | A (A means greater than or equal to 10) | ≤ 10 nM | C[C@H](NC(=O)c1ccc(N2CC(CC#N)(n3cc(-c4ncnc5[nH]ccc45)cn3)C2)cn1)C1CC1 [Example 11, 5-{3-(Cyanomethyl)-3-[4-(7H-pyrrolo[2,3-d]pyrimidin-4-yl)-1H-pyrazol-1-yl]azetidin-1-yl}-N-[(1S)-1-cyclopropylethyl]pyridine-2-carboxamide] |
| < 10 nM | A (A means greater than or equal to 10) | ≤ 10 nM | N#CCC1(n2cc(-c3ncnc4[nH]ccc34)cn2)CN(c2ccc(C(=O)NC3CC(F)(F)C3)nc2)C1 [Example 12, 5-{3-(Cyanomethyl)-3-[4-(7H-pyrrolo[2,3-d]pyrimidin-4-yl)-1H-pyrazol-1-yl]azetidin-1-yl}-N-(3,3-difluorocyclobutyl)pyridine-2-carboxamide] |
| < 10 nM | A (A means greater than or equal to 10) | 10 to 40 nM | CC(C)NC(=O)c1ccc(N2CC(CC#N)(n3cc(-c4ncnc5[nH]ccc45)cn3)C2)cc1 [Example 13, 4-{3-(Cyanomethyl)-3-[4-(7H-pyrrolo[2,3-d]pyrimidin-4-yl)-1H-pyrazol-1-yl]azetidin-1-yl}-N-isopropylbenzamide] |
| < 10 nM | – | – | CC(C)NC(=O)c1ccc(N2CC(CC#N)(n3cc(-c4ncnc5[nH]ccc45)cn3)C2)cc1F [Example 14, 4-{3-(Cyanomethyl)-3-[4-(7H-pyrrolo[2,3-d]pyrimidin-4-yl)-1H-pyrazol-1-yl]azetidin-1-yl}-2-fluoro-N-isopropylbenzamide] |
| < 10 nM | A (A means greater than or equal to 10) | 10 to 40 nM | C[C@H](NC(=O)c1ccc(N2CC(CC#N)(n3cc(-c4ncnc5[nH]ccc45)cn3)C2)cc1F)C1CCCCC1 [Example 15, 4-{3-(Cyanomethyl)-3-[4-(7H-pyrrolo[2,3-d]pyrimidin-4-yl)-1H-pyrazol-1-yl]azetidin-1-yl}-N-[(1S)-1-cyclohexylethyl]-2-fluorobenzamide] |
| < 10 nM | A (A means greater than or equal to 10) | ≤ 10 nM | C[C@@H](NC(=O)c1ccc(N2CC(CC#N)(n3cc(-c4ncnc5[nH]ccc45)cn3)C2)c(F)c1)C(F)(F)F [Example 16, 4-{3-(Cyanomethyl)-3-[4-(7H-pyrrolo[2,3-d]pyrimidin-4-yl)-1H-pyrazol-1-yl]azetidin-1-yl}-3-fluoro-N-[(1R)-2,2,2-trifluoro-1-methylethyl]benzamide] |
| < 10 nM | A (A means greater than or equal to 10) | ≤ 10 nM | N#CCC1(n2cc(-c3ncnc4[nH]ccc34)cn2)CN(c2ccc(C(=O)NC3(C(F)(F)F)CC3)nc2)C1 [Example 17, 5-{3-(Cyanomethyl)-3-[4-(7H-pyrrolo[2,3-d]pyrimidin-4-yl)-1H-pyrazol-1-yl]azetidin-1-yl}-N-[1-(trifluoromethyl)cyclopropyl]pyridine-2-carboxamide] |
| – | – | 10 to 40 nM | CC(C)NC(=O)c1cnc(N2CC(CC#N)(n3cc(-c4ncnc5[nH]ccc45)cn3)C2)cn1 [Example 18, 5-{3-(Cyanomethyl)-3-[4-(7H-pyrrolo[2,3-d]pyrimidin-4-yl)-1H-pyrazol-1-yl]azetidin-1-yl}-N-isopropylpyrazine-2-carboxamide] |
| < 10 nM | A (A means greater than or equal to 10) | 10 to 40 nM | CC(NC(=O)c1ccc(N2CC(CC#N)(n3cc(-c4ncnc5[nH]ccc45)cn3)C2)cc1)C1CCN(C)CC1 (stereo not drawn) [Example 20, 4-{3-(Cyanomethyl)-3-[4-(7H-pyrrolo[2,3-d]pyrimidin-4-yl)-1H-pyrazol-1-yl]azetidin-1-yl}-N-[1-(1-methylpiperidin-4-yl)ethyl]benzamide] |
| < 10 nM | A (A means greater than or equal to 10) | ≤ 10 nM | C[C@@H](NC(=O)c1cc(F)c(N2CC(CC#N)(n3cc(-c4ncnc5[nH]ccc45)cn3)C2)cc1F)C1CC1 [Example 21, 4-{3-(Cyanomethyl)-3-[4-(7H-pyrrolo[2,3-d]pyrimidin-4-yl)-1H-pyrazol-1-yl]azetidin-1-yl}-N-[(1R)-1-cyclopropylethyl]-2,5-difluorobenzamide] |
| – | – | 10 to 40 nM | CC(C)NC(=O)c1cnc(N2CC(CC#N)(n3cc(-c4ccnc5[nH]ccc45)cn3)C2)cn1 [Example 34, 5-{3-(Cyanomethyl)-3-[4-(1H-pyrrolo[2,3-b]pyridin-4-yl)-1H-pyrazol-1-yl]azetidin-1-yl}-N-isopropylpyrazine-2-carboxamide] |
